Patent US11180494B2, “Substituted amino acids as integrin inhibitors” (Pliant Therapeutics, Inc., priority 2018, dated 2021)

The compounds below were run against human integrin αvβ6 (Homo sapiens (Human), UniProt P06756+P18564) (assay: Proximity-based integrin receptor binding assay (ALPHASCREEN) for inhibitor potency). Settings: inhibition of binding of TGF-b1 LAP to human integrin αvβ6; values given in ranges.
Procedure, shortened: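 AlphaScreen: integrin, compound, TGF-b1 LAP, biotinylated anti-LAP antibody and acceptor beads incubated 2 hours, then streptavidin donor beads 30 minutes, at room temperature in 50 mM Tris-HCl pH 7.5, 0.1% BSA, 1 mM CaCl2 and MgCl2. Excitation 680 nm, emission 520-620 nm; IC50 by four-parameter logistic fit.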

Sequence of human integrin αvβ6 (P06756 31-992): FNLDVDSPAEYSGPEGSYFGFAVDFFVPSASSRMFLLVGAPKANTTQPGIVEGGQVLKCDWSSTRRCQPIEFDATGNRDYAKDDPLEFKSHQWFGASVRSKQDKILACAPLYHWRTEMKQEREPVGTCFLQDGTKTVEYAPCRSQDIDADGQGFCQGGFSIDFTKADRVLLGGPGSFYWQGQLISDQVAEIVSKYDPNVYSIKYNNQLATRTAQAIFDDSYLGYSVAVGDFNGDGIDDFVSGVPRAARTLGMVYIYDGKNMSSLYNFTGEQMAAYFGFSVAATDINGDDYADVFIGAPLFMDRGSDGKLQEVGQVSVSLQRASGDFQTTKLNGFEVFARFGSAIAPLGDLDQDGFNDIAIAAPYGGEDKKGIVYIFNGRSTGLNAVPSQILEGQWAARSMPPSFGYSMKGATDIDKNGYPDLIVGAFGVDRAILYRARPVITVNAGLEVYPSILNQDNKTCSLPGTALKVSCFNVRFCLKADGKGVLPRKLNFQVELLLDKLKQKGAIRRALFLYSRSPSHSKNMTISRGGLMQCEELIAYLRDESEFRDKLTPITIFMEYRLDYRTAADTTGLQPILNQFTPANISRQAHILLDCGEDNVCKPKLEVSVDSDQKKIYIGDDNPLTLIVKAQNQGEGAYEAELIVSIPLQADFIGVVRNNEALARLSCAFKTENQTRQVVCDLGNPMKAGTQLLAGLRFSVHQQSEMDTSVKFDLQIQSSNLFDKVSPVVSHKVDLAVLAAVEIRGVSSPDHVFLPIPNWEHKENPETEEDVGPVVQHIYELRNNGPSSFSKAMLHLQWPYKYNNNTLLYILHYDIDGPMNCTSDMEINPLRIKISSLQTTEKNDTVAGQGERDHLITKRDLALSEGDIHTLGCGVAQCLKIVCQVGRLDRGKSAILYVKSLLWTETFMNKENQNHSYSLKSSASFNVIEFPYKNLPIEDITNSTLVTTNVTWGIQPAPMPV
Sequence of human integrin αvβ6 (P18564 22-707): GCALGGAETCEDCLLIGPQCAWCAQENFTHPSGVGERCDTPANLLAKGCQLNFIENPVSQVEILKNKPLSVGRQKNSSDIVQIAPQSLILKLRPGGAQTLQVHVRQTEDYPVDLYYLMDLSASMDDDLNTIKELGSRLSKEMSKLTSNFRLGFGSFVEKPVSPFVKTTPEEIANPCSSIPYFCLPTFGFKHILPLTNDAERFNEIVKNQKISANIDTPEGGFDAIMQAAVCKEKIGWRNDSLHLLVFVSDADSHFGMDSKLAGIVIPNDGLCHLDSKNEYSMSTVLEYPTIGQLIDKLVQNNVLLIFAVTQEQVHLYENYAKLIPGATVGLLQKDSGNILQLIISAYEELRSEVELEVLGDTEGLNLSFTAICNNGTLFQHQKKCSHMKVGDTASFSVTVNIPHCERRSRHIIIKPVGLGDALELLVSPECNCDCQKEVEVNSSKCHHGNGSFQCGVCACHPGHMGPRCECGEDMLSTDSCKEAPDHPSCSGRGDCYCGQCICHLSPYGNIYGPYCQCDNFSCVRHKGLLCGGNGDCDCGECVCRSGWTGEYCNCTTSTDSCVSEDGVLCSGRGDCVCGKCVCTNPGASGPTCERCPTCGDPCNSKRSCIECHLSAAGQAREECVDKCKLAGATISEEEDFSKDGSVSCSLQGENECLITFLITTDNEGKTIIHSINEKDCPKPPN

First: O=C(N[C@@H](CCO[C@H]1C[C@H](CCc2ccc3c(n2)NCCC3)C1)C(=O)O)c1cc(F)ccc1F [Compound 33, N-(2,5-difluorobenzoyl)-O-(trans-3-(2-(5,6,7,8-tetrahydro-1,8-naphthyridin-2-yl)ethyl)cyclobutyl)homoserine]
Second: O=C(O)C(CCO[C@H]1C[C@H](CCc2ccc3c(n2)NCCC3)C1)NC(=O)[C@H](CO)c1ccccc1 (stereo partly drawn) [Compound 47, N—((S)-3-hydroxy-2-phenylpropanoyl)-O-(trans-3-(2-(5,6,7,8-tetrahydro-1,8-naphthyridin-2-yl)ethyl)cyclobutyl)homoserine]
The IC50 of the first is lower: < 50 nM for the first, 250 to 1000 nM for the second. The first is the more potent here.

First: O=C(NC(CCOCCCCc1ccc2c(n1)NCCC2)C(=O)O)c1cc(F)cc(C(F)(F)F)c1 (stereo not drawn) [Compound 9, N-(3-fluoro-5-(trifluoromethyl)benzoyl)-O-(4-(5,6,7,8-tetrahydro-1,8-naphthyridin-2-yl)butyl)homoserine]
Second: CC(C)(CO)C(=O)NC(CCO[C@H]1C[C@H](CCc2ccc3c(n2)NCCC3)C1)C(=O)O (stereo partly drawn) [Compound 89, N-(3-hydroxy-2,2-dimethylpropanoyl)-O-(trans-3-(2-(5,6,7,8-tetrahydro-1,8-naphthyridin-2-yl)ethyl)cyclobutyl)homoserine]
The IC50 of the first is lower: 50 to 250 nM for the first, 250 to 1000 nM for the second.

Compared with CC(CO[C@H]1C[C@H](CCc2ccc3c(n2)NCCC3)C1)C(NC(=O)OC(C)(C)C)C(=O)O (single isomer, unassigned) [Example 145B, 2-((tert-butoxycarbonyl)amino)-3-methyl-4-(trans-3-(2-(5,6,7,8-tetrahydro-1,8-naphthyridin-2-yl)ethyl)cyclobutoxy)butanoic Acid], CC(C)(C)OC(=O)NC(CCO[C@H]1C[C@H](CCc2ccc3c(n2)NCCC3)C1)C(=O)O (stereo partly drawn) [Compound 101, N-(tert-butoxycarbonyl)-O-(trans-3-(2-(5,6,7,8-tetrahydro-1,8-naphthyridin-2-yl)ethyl)cyclobutyl)homoserine] is lower in IC50: 50 to 250 nM for the first, < 50 nM for the second. The second is the more potent here.

CC(=O)N1CC(C)(OC(=O)N[C@@H](CCO[C@H]2C[C@H](CCc3ccc4c(n3)NCCC4)C2)C(=O)O)C1 [Compound 129, N-(((1-acetyl-3-methylazetidin-3-yl)oxy)carbonyl)-O-(trans-3-(2-(5,6,7,8-tetrahydro-1,8-naphthyridin-2-yl)ethyl)cyclobutyl)homoserine] and CCC(CC)C(=O)N[C@@H](CCO[C@H]1C[C@H](CCc2ccc3c(n2)NCCC3)C1)C(=O)O [Compound 44, N-(2-ethylbutanoyl)-O-(trans-3-(2-(5,6,7,8-tetrahydro-1,8-naphthyridin-2-yl)ethyl)cyclobutyl)homoserine] fall in the same range of IC50: 50 to 250 nM for the first, 50 to 250 nM for the second.

Compared with CC(CO[C@H]1C[C@H](CCc2ccc3c(n2)NCCC3)C1)C(NC(=O)OC(C)(C)C)C(=O)O (single isomer, unassigned) [Example 145A, 2-((tert-butoxycarbonyl)amino)-3-methyl-4-(trans-3-(2-(5,6,7,8-tetrahydro-1,8-naphthyridin-2-yl)ethyl)cyclobutoxy)butanoic Acid], CC(C)c1ccc(C2(OC(=O)N[C@@H](CCO[C@H]3C[C@H](CCc4ccc5c(n4)NCCC5)C3)C(=O)O)CN(C(=O)OC(C)(C)C)C2)cc1 [Compound 158, N-(((1-(tert-butoxycarbonyl)-3-(4-isopropylphenyl)azetidin-3-yl)oxy)carbonyl)-O-(trans-3-(2-(5,6,7,8-tetrahydro-1,8-naphthyridin-2-yl)ethyl)cyclobutyl)homoserine] is lower in IC50: 250 to 1000 nM for the first, < 50 nM for the second. The second is the more potent here.

CC(C)(C)OC(=O)N1CC(OC(=O)N[C@@H](CCO[C@H]2C[C@H](CCc3ccc4c(n3)NCCC4)C2)C(=O)O)(c2cccc(Cl)c2)C1 [Compound 157, N-(((1-(tert-butoxycarbonyl)-3-(3-chlorophenyl)azetidin-3-yl)oxy)carbonyl)-O-(trans-3-(2-(5,6,7,8-tetrahydro-1,8-naphthyridin-2-yl)ethyl)cyclobutyl)homoserine] was tested, and the IC50 was < 50 nM.

Same assay, conditions: inhibition of binding of TGF-b1 LAP to human integrin αvβ6; values given in ranges; listed as 65**

For O=C(NC(CCO[C@H]1C[C@H](CCc2ccc3c(n2)NCCC3)C1)C(=O)O)c1cccc(-c2cncs2)c1 (stereo partly drawn) [Compound 65, O-(trans-3-(2-(5,6,7,8-tetrahydro-1,8-naphthyridin-2-yl)ethyl)cyclobutyl)-N-(3-(thiazol-5-yl)benzoyl)homoserine], the IC50 was < 50 nM.
